Legend:
human GnRH receptor = biological target: T1, human GnRH receptor (Homo sapiens, UniProt P30968); assay: affinity for human GnRH receptor; assay type: binding; conditions: compound (VI) as well as its salts such as the choline salt; kind of constant not stated
T1 sequence (P30968 1-328): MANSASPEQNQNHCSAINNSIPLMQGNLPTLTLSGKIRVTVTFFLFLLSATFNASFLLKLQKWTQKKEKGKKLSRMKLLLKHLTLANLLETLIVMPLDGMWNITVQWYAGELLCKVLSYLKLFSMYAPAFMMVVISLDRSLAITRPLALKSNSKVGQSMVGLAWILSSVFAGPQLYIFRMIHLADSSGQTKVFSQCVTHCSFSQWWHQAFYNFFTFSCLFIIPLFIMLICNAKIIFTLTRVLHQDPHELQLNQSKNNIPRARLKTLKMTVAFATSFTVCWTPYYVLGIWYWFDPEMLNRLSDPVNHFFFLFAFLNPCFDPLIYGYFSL

[1] = tested on: human female patients diagnosed as having endometriosis; assay: Phase 2b human clinical trial in endometriosis, 24-week treatment and post-treatment follow-up; assay type: in vivo; conditions: for Bone Mineral Density (Mean % change from baseline): spine
Method: This example describes the results of a Phase 2b human clinical trial undertaken to evaluate the efficacy of a GnRH antagonist represented by formula (VI) in a series of patients suffering from an estrogen-dependent disease. In this trial, a series of human female patients diagnosed as having endometriosis were administered the choline salt of 3-[2-fluoro-5-(2,3-difluoro-6-methoxybenzyloxy)4-methoxyphenyl]-2,4-dioxo-1,2,3,4-tetrahydrothieno [3,4d]pyrimidine-5-carboxylic acid periodically over the course of a 24-week treatment period. After 24 weeks of treatment, various patients entered a 24-week post-treatment follow-up period during which the patients were monitored for serum β17-estradiol (E2) concentration, severity of disease symptoms, and bone mineral density.
A series of n=328 human female patients having clinically-diagnosed endometriosis were randomly assigned to treatment arms in which patients were to be administered placebo or the GnRH antagonist in a once-daily amount of 50 mg/day, 100 mg/day, 75 mg/day, or 200 mg/day. Patients initially treated with placebo (plc) were administered the GnRH antagonist in an amount of 100 mg/day after 12 weeks. Also, after 12 weeks, patients that were initially administered 75 mg/day were provided a higher (100 mg/day) or lower (50 mg/day) dosage of the GnRH antagonist based on the patients' E2 levels at the 12-week point. The E2 levels for this group of patients is represented by “75 mg (TD)” in FIGS. 1-3. Patients that were administered 75 mg through the end of the treatment period are represented by “75 mg (FD)” in FIGS. 1-3.
After 24 weeks of continuous, once-daily treatment, administration of the GnRH antagonist ceased. A set of n=65 patients entered the 24-week post-treatment follow-up study. Following the 24-week treatment period, these patients were periodically monitored. The median E2 levels of patients that were administered the GnRH antagonist during the original 24-week treatment period and that subsequently entered the 24-week post-treatment follow-up study are shown in FIG. 1. FIGS. 2 and 3 show the mean change in dyspareunia and dyschezia scores for such patients over the 24-week treatment period and a 12-week portion of the post-treatment follow-up period.

[2] = tested on: human female patients diagnosed as having uterine fibroids; assay: PRIMROSE 1 Phase 3 placebo-controlled trial in uterine fibroids; assay type: in vivo; conditions: for proportion of patients with menstrual blood loss ≤80 mL and ≥50% reduction from baseline: 24 weeks
From the text: (§1) This example describes the results of two Phase 3, double-blind, randomized, placebo-controlled, multicenter, human clinical trials undertaken to evaluate the efficacy of the GnRH antagonist represented by formula (VI) in a series of patients suffering from uterine fibroids. In these trials, referred to herein as “PRIMROSE 1” and “PRIMROSE 2,” human female patients diagnosed as having uterine fibroids were periodically administered compound (VI), 3-[2-fluoro-5-(2,3-difluoro-6-methoxybenzyloxy)4-methoxyphenyl]-2,4-dioxo-1,2,3,4-tetrahydrothieno [3,4d]pyrimidine-5-carboxylic acid, in the form of a choline salt over the course of a 12-month treatment period. Patients were administered compound (VI) once daily in an amount of either 100 mg or 200 mg. Patients receiving compound (VI) in a daily amount of 200 mg also received once daily hormonal add-back therapy (ABT), which consisted of […] of β17-estradiol (E2) per day and 0.5 mg of norethindrone acetate (NETA) per day.
(§2) The PRIMROSE 1 study, conducted in the United States, enrolled 526 women. The PRIMROSE 2 study, conducted in the United States and Europe, enrolled 535 women.
(§3) Patients were randomized to one of several cohorts: (i) placebo, (ii) 100 mg/day of compound (VI), or (iii) 200 mg/day of compound (VI). Patients receiving 200 mg/day of compound (VI) also received once-daily ABT containing 1.0 mg E2 and 0.5 mg NETA.
(§4) Patients were assessed for uterine fibroid symptomology at baseline, after 24 weeks of treatment, and again after 52 weeks of treatment. […] Patients were also assessed in order to determine the number of days of uterine bleeding during their last 28-day interval prior to week 24 of treatment with placebo or compound (VI).
(§5) Pain levels were measured using a Verbal Rating Score (VRS), as described herein. Patients were also assessed to determine the proportion that reported an improvement in quality of life using the Uterine Fibroids Symptoms and Health-Related Quality of Life questionnaire.
(§6) To evaluate the safety of compound (VI), patients' bone mineral density levels were measured at baseline and at various timepoints during the studies.

[3] = tested on: human female patients diagnosed as having uterine fibroids; assay: PRIMROSE 2 Phase 3 placebo-controlled trial in uterine fibroids; assay type: in vivo
From the text: as §1, §2, §3, §4, §5, §6

[4] = once-daily treatment, 24 and 52 weeks, FIG. 9

Compound: COc1cc(F)c(-n2c(=O)[nH]c3csc(C(=O)O)c3c2=O)cc1OCc1c(OC)ccc(F)c1F [Compound (VI), 3-[2-fluoro-5-(2,3-difluoro-6-methoxybenzyloxy)4-methoxyphenyl]-2,4-dioxo-1,2,3,4-tetrahydrothieno [3,4d]pyrimidine-5-carboxylic acid]
- affinity for human GnRH receptor (human GnRH receptor): 27.4 nM
- Overall Pelvic Pain Responder Rate (VRS score reduction of > 30% from baseline) ([1]; 75 mg once daily (choline salt), after 24 weeks of treatment, n = 48): 70.8%
- Overall Pelvic Pain Responder Rate (VRS score reduction of > 30% from baseline) ([1]; 75 mg once daily for 24 weeks, 12 weeks after cessation of treatment, n = 7): 87.5%
- Overall Pelvic Pain Responder Rate (VRS score reduction of > 30% from baseline) ([1]; 200 mg once daily (choline salt), after 24 weeks of treatment, n = 44): 77.3%
- Overall Pelvic Pain Responder Rate (VRS score reduction of > 30% from baseline) ([1]; 200 mg once daily for 24 weeks, 12 weeks after cessation of treatment, n = 10): 70.0%
- dyspareunia, Verbal Rating Score (VRS) ([1]; after cessation of 24-week once-daily treatment, 12-week portion of follow-up, FIG. 2): sustained reduction
- dyschezia, Numerical Rating Score (NRS) ([1]; after cessation of 24-week once-daily treatment, 12-week portion of follow-up, FIG. 3): sustained reduction
- Bone Mineral Density (Mean % change from baseline) ([1]; 75 mg once daily for 24 weeks, 12 weeks after cessation of treatment): +0.313%
- Bone Mineral Density (Mean % change from baseline) ([1]; 75 mg once daily, after 24 weeks of treatment): −0.798%
- Bone Mineral Density (Mean % change from baseline) ([1]; 200 mg once daily for 24 weeks, 12 weeks after cessation of treatment): +1.135%
- Bone Mineral Density (Mean % change from baseline) ([1]; 200 mg once daily, after 24 weeks of treatment): −2.602%
- p value: Improvement in quality of life, Change from baseline in quality of life (QoL) symptom severity score (LS mean) ([2]; 100 mg/day): p = 0.002
- p value: Improvement in quality of life, Change from baseline in quality of life (QoL) symptom severity score (LS mean) ([2]; 200 mg/day + once-daily ABT): p < 0.001
- proportion of patients with menstrual blood loss ≤80 mL and ≥50% reduction from baseline ([2]; 100 mg per day without ABT, p=0.003, placebo 35%): 56.4%
- proportion of patients with menstrual blood loss ≤80 mL and ≥50% reduction from baseline ([2]; 200 mg per day + ABT (1.0 mg E2 + 0.5 mg NETA), p<0.001, placebo 35%): 75.5%
- bone mineral density, lumbar spine [2, 4]: does not induce a substantial decrease in bone mineral density
- p value: Improvement in quality of life, Change from baseline in quality of life (QoL) symptom severity score (LS mean) ([3]; 100 mg/day): p = 0.004
- p value: Improvement in quality of life, Change from baseline in quality of life (QoL) symptom severity score (LS mean) ([3]; 200 mg/day + once-daily ABT): p < 0.001
- proportion of patients with menstrual blood loss to a level of 80 mL and a 50% reduction from baseline ([3]; 52 weeks, 100 mg per day without ABT): 53.2%
- proportion of patients with menstrual blood loss ≤80 mL and ≥50% reduction from baseline ([3]; 52 weeks, 200 mg per day + ABT): 91.6%
- bone mineral density, lumbar spine [3, 4]: does not induce a substantial decrease in bone mineral density
